US8829067B2, “Polymerizable compositions with initiators containing several Ge atoms” (Ivoclar Vivadent AG, priority 2008, dated 2014)
Values joined by “and” are separate entries in the source; they are usually repeats but may differ in a detail not shown here. Equal entries are not always repeated.

Assays:
[1] = UV-VIS absorption of the photoinitiators; format: physicochemical; conditions: for long-wave absorption maximum (λmax): UV-VIS; for extinction coefficient ε: at λmax
Source text: The photoinitiator di-Ge according to the invention with a long-wave absorption maximum of 400.5 nm has an extinction coefficient ε=3260 dm^2/mol which is thus more than twice that of benzoyltrimethylgermane mono-Ge (ε=1461 dm^2/mol), which leads to an improvement in photopolymerization activity. Compared with the Norrish type II photoinitiator camphorquinone widely used in the dental field, the extinction coefficient of which ε at λmax of 468 nm is only 380 dm^2/mol and which moreover requires an additional reducing agent, in most cases amine, for effective radical formation, the absorption maximum of di-Ge is clearly on a shorter wavelength and thus fades very well when irradiated.

[2] = background statement; cited from earlier work

Row | Structure (SMILES) | long-wave absorption maximum (λmax) [1] | extinction coefficient ε [1] | absorption maximum wavelength [2]
1 | CC12CCC(C(=O)C1=O)C2(C)C (stereo not shown) [camphorquinone] | 468 nm | 380 dm^2/mol | 468 nm
2 | [CH3][Ge]([CH3])([CH3])[C](=O)c1ccc(OCCCCCCOc2ccc([C](=O)[Ge]([CH3])([CH3])[CH3])cc2)cc1 [di-Ge, 1,6-bis[4-(trimethylgermylcarbonyl)phenoxy]hexane] | 400.5 nm | 3260 dm^2/mol | –
3 | [CH3][Ge]([CH3])([CH3])[C](=O)c1ccccc1 [mono-Ge, benzoyltrimethylgermanium] | 411.5 nm | 1374 dm^2/mol and 1461 dm^2/mol | –
